Laboratory results reported in ChEMBL document CHEMBL1201862, “PubChem BioAssay data set” (2004).
Activity calls are given as the source filed them.

How the values were obtained:
[1] = viability of uninfected HEp-2 cells – cell-based, HTS, cytotoxicity control for RSV inhibitor project, dose response (AID 2410); type: functional; conditions: human respiratory syncytial virus
[2] = target: T1, Delta-type opioid receptor (Homo sapiens, UniProt P41143); assay: HTS Image-Based Screen for Antagonists of the DOR Receptor. [Related pubchem assays (depositor defined):AID1777, AID1785, AID1786, AID2133]; type: functional
T1 sequence (P41143 whole entry): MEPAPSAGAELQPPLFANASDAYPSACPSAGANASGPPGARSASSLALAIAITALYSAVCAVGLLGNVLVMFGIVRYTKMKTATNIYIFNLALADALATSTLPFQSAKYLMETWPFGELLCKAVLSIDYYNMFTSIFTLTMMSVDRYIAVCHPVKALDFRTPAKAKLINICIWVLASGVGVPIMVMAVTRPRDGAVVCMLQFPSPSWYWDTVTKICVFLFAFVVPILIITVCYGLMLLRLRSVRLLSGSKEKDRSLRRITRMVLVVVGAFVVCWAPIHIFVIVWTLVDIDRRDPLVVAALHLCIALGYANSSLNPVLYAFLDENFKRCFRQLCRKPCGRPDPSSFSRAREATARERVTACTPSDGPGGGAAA

Mu-type opioid receptor = Mu-type opioid receptor (Homo sapiens, UniProt P35372); assay: HTS Image-Based Screen for Agonists of the MOR Receptor. [Related pubchem assays (depositor defined):AID1777, AID1785, AID1786, AID2133]; type: functional;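 also: imaging of beta-arrestin GFP recruitment into spots after receptor activation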
Chain of Mu-type opioid receptor (P35372 whole entry): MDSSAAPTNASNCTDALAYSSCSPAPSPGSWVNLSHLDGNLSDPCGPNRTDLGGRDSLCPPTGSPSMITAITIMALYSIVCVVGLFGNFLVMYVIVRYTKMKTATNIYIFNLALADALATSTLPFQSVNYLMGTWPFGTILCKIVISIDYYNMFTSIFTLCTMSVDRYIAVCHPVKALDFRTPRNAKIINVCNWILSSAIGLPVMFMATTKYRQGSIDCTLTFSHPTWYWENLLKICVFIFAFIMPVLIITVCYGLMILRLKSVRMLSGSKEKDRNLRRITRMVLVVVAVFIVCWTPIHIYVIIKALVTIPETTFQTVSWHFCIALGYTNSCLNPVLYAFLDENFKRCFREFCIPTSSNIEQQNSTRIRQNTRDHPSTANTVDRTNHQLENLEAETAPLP

[3] = target: T1, Delta-type opioid receptor; assay: HTS Image-Based Screen for Agonists of the DOR Receptor. [Related pubchem assays (depositor defined):AID1777, AID1786, AID2133]; type: functional
[4] = microbe, parasite or virus in culture; type: functional; conditions: Mycobacterium tuberculosis
[5] = target: T2, Kappa-type opioid receptor (Homo sapiens, UniProt P41145); type: functional
T2 sequence (P41145 whole entry): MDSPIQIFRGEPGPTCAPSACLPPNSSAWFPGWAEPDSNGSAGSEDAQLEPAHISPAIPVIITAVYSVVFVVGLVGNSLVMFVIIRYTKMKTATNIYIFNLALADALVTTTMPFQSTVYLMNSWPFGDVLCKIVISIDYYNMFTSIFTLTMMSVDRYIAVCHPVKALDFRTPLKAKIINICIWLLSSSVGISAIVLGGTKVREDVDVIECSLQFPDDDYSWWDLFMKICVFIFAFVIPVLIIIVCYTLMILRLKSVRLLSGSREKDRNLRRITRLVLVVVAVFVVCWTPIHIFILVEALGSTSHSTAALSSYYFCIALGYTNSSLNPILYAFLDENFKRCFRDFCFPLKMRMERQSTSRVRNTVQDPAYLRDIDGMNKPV

Beta-galactosidase = Beta-galactosidase (Escherichia coli, UniProt Q8VNN2); type: functional
Chain of Beta-galactosidase (Q8VNN2 whole entry): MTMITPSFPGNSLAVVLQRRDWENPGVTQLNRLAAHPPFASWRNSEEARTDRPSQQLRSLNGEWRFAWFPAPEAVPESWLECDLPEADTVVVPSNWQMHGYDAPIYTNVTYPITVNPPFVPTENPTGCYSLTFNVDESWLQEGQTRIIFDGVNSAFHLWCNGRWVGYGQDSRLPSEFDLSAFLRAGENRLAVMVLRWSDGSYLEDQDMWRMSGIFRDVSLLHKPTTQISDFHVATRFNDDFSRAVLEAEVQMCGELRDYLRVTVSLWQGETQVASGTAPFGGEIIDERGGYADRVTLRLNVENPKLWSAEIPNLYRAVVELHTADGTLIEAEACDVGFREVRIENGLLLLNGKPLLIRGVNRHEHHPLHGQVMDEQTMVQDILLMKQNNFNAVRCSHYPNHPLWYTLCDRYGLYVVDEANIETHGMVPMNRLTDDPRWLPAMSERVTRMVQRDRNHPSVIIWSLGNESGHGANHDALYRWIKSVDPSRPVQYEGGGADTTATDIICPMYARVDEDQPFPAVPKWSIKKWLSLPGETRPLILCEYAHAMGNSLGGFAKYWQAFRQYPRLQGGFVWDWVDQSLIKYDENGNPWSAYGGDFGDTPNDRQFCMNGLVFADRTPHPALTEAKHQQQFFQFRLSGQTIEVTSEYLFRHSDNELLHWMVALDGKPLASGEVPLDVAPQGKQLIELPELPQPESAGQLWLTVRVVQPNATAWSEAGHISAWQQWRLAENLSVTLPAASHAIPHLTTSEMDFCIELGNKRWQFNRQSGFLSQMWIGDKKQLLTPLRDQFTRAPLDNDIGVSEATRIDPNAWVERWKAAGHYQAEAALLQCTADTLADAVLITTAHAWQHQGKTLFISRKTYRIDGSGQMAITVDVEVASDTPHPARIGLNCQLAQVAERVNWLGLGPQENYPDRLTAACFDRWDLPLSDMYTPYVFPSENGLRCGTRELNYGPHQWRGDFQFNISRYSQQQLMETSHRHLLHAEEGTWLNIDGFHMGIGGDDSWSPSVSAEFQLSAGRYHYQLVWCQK

[6] = target: T2, Kappa-type opioid receptor; type: functional; remark: listed apart in the source
[7] = target: T3, Short transient receptor potential channel 4 (Mus musculus, UniProt Q9QUQ5); assay: calcium entry via TRPC4 opening agents – cell-based, HEK293 TRPC4/mu-opioid, Fluo-4 calcium, dose response (AID 434937); type: functional
T3 sequence (Q9QUQ5 whole entry): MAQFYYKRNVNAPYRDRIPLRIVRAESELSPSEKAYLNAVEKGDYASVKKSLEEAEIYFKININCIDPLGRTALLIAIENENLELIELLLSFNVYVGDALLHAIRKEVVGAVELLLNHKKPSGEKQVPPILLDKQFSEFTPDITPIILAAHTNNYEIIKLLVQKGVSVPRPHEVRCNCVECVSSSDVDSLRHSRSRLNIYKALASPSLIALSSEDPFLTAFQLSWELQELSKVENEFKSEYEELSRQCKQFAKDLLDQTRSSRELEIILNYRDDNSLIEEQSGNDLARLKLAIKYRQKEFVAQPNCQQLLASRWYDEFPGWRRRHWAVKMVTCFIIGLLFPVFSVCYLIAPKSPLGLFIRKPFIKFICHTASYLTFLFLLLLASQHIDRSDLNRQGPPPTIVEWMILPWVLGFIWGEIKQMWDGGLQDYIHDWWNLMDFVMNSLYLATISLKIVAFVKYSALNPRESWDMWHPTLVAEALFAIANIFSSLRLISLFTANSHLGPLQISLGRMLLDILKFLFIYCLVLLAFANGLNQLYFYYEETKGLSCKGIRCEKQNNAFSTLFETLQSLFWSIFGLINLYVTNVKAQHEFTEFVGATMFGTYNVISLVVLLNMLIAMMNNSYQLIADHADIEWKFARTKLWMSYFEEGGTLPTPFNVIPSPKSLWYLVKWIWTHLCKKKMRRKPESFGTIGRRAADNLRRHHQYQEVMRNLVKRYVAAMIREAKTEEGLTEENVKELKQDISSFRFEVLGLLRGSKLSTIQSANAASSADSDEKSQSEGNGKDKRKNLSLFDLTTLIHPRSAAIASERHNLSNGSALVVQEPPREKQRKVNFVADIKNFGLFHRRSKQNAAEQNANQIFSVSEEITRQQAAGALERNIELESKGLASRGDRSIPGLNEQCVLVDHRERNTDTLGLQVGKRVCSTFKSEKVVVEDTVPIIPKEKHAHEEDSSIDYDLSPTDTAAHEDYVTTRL

[8] = reduction of Shn3 3'UTR-driven luciferase in osteoblasts – cell-based, Clone20 osteoblasts, firefly luciferase, cherry-picked, dose response (AID 624132); type: functional;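 also: firefly luciferase luminescence from reporter carrying the Shn3 3'UTR in osteoblasts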
[9] = loss of viability in HepG2 cells – cell-based, CellTiter-Glo, cherry-picked, cytotoxicity control for Shn3 inhibitor project, dose response (AID 624134); type: functional
[10] = target: T4, Histone-lysine N-methyltransferase NSD2 (Homo sapiens, UniProt O96028); type: biochemical
T4 sequence (O96028 whole entry): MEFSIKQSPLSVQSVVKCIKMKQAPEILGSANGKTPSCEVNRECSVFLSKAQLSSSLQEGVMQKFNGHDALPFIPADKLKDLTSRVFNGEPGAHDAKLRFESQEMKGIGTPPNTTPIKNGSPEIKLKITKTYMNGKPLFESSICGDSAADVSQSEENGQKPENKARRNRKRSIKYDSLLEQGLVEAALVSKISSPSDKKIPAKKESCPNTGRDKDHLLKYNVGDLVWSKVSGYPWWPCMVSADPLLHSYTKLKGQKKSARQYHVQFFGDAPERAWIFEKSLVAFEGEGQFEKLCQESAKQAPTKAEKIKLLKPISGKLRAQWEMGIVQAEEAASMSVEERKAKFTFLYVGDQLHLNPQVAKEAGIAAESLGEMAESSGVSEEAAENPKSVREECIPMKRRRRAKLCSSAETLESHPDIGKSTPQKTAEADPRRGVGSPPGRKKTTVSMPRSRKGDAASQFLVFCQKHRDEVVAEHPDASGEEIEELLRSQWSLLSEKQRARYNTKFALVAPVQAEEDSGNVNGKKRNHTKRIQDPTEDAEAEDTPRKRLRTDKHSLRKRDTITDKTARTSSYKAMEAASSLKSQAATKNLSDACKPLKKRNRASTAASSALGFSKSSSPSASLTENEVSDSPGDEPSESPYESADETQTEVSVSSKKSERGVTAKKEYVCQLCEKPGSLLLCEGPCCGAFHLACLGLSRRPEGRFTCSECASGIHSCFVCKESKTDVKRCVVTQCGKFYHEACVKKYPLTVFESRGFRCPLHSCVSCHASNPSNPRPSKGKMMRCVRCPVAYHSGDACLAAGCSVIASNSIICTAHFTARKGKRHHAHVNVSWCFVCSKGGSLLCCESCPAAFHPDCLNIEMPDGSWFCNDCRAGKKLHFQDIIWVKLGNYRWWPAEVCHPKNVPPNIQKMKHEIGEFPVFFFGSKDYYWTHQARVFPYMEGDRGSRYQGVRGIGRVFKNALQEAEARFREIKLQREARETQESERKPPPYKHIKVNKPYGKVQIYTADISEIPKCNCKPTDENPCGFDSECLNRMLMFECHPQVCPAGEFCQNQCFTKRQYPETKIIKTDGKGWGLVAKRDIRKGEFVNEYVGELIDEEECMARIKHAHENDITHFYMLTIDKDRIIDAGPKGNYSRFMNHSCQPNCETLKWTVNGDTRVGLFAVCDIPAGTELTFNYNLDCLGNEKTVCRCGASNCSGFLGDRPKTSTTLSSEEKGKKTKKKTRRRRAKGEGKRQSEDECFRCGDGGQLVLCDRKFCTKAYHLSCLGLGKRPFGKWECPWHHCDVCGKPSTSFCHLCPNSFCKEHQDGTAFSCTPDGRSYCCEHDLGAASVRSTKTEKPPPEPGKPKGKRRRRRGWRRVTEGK

HEK293 [11] = assay: cells; conditions: Homo sapiens
HEK293 [12] = assay: cells; conditions: Homo sapiens; remark: listed apart in the source
HeLa = assay: ATP-based viability loss in HeLa cells – cell-based, CellTiter-Glo luminescence, cherry-pick samples, cytotoxicity control for MITF activator project, dose response (AID 540259); type: functional; conditions: Homo sapiens
HEK293 [13] = assay: EBV LMP1 TES2 canonical NF-kB signalling blockers – cell-based, HEK293, luciferase, cherry-pick, dose response (AID 588343); type: functional; conditions: Homo sapiens
Vero [14] = assay: cells; type: functional, cell-based; conditions: Chlorocebus sabaeus
Vero [15] = assay: cells; type: functional; conditions: Chlorocebus sabaeus
Fatty acid synthase [16] = target: T5, Fatty acid synthase (Homo sapiens, UniProt P49327); assay: inhibition of human FAS-TE enzyme activity – biochemical, endpoint fluorescence intensity, uHTS hits, dose response (AID 624327); type: functional;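 also: fluorescence from hydrolysis of an O-methyl fluorescein acyl ester substrate by the enzyme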
T5 sequence (P49327 whole entry): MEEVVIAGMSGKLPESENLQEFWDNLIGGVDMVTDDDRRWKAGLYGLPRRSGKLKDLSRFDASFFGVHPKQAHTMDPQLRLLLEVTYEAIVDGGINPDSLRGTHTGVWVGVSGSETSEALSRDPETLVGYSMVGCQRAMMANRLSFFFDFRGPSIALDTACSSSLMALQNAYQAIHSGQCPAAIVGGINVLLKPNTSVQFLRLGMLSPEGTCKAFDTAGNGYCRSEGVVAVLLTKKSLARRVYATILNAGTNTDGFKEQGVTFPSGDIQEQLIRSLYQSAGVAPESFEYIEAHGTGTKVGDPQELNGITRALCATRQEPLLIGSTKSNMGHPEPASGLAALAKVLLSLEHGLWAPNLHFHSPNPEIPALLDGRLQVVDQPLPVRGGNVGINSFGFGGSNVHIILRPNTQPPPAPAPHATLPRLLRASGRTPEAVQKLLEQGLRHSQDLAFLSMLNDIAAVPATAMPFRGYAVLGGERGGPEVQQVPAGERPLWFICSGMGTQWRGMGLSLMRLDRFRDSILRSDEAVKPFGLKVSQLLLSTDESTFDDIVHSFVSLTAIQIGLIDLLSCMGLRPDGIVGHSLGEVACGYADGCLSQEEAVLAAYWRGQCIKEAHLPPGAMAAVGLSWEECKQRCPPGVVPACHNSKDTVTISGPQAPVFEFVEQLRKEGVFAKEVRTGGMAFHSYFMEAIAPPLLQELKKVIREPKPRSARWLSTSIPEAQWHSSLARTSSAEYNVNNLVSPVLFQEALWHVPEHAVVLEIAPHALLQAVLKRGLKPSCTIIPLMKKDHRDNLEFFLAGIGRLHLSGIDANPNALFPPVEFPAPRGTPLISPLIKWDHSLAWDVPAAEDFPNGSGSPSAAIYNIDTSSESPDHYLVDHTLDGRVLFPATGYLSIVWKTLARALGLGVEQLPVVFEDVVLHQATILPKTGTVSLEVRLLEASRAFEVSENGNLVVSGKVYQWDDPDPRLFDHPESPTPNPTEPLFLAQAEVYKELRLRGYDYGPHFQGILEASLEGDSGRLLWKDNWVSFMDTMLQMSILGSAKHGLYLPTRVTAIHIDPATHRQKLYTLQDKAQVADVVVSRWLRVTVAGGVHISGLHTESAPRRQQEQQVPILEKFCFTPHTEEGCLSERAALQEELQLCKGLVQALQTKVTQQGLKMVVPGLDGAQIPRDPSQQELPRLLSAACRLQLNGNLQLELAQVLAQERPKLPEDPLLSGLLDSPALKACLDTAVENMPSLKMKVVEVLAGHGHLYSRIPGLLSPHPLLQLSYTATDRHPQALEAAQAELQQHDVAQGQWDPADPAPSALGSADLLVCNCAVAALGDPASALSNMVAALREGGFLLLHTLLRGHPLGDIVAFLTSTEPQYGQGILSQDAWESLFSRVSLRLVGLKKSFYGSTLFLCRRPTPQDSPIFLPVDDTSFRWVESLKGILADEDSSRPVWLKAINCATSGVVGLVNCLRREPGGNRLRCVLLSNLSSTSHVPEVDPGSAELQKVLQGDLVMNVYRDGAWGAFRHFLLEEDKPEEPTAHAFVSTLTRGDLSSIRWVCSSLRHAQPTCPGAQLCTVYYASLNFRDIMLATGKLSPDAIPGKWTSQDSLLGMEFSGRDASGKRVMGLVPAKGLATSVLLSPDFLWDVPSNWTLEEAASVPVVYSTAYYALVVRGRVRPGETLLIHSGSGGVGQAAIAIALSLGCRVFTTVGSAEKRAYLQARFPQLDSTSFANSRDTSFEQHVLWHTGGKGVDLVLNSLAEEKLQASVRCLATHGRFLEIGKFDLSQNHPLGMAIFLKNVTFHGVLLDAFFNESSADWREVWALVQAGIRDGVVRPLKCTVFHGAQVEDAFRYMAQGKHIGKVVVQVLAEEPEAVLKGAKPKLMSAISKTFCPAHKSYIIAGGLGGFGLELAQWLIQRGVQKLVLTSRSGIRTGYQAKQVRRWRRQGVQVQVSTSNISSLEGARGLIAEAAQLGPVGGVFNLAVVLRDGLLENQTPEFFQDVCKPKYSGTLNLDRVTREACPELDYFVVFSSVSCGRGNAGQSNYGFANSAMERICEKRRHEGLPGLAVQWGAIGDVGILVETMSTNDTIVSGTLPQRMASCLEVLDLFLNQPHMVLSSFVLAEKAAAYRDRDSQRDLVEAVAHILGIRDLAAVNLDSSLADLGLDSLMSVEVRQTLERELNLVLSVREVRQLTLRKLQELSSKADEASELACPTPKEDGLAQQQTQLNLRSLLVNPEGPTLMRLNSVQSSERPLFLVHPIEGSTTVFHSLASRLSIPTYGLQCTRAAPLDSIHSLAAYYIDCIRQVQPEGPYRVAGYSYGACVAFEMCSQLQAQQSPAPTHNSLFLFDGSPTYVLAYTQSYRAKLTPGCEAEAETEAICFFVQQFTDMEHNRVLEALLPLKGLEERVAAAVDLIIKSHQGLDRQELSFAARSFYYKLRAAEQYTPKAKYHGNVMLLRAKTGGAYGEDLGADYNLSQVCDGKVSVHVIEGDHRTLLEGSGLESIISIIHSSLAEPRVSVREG

Fatty acid synthase [17] = target: T5, Fatty acid synthase; assay: inhibition of human FAS-TE enzyme activity – biochemical, kinetic fluorescence intensity, dose response (AID 624326); type: functional;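 also: rate of fluorescence rise from hydrolysis of a fluorogenic O-methyl fluorescein ester substrate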
Escherichia coli = assay: microbe, parasite or virus in culture
[18] = viability of PTEN-deleted HCT116 cells – cell-based, HCT116 PTEN knockout, dose response (AID 1047); type: functional;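 also: HCT116 colon tumor cells with PTEN knocked out; cells exposed to compound for 60 hours before readout; potency for loss of cell viability measured by luminescence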
[19] = viability of HCT116 lacking mutant beta-catenin – cell-based, human colon tumor, dose response (AID 1045); type: functional;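 also: HCT116 colon tumor cells with beta catenin knocked out; cells exposed to compound for 60 hours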

For `COc1cc(OC)c(OC)cc1CCC(C)NCCC(c1ccccc1)c1ccccc1` (stereo not drawn), which CC50 [1] is on record?
Its CC50 is 14.6 µM (active).

And the IC50 [2]?
Its IC50 is 24.4 µM (inactive).

And the EC50 (Mu-type opioid receptor)?
Its EC50 is > 32 µM (inactive).

And the EC50 [3]?
Its EC50 is > 32 µM (inactive).

And the CC50 [4]?
Its CC50 is 13.9 µM (active).

And the IC50 [5]?
Its IC50 is 10.9 µM (active).

What about the EC50 (Beta-galactosidase) of the same compound?
Its EC50 is > 31.5 µM (inactive).

And the IC50 [6]?
Its IC50 is greater than 32 µM.

What about the EC50 [7] of the same compound?
The EC50 was 6.68 µM (active).

And the AC50 [8]?
The AC50 was 3.99 µM (active).

And the AC50 [9]?
Its AC50 is 8.98 µM (active).

And the AC50 [10]?
The AC50 was 15.8 µM (active).

And the EC50 (HEK293 [11])?
Its EC50 is > 59.6 µM (inactive).

What about the EC50 (HEK293 [12]) of the same compound?
The EC50 was > 59.6 µM (inactive).

For `CC(C)Cc1cc(C(=O)Nc2ccc(Br)cc2)no1`, which AC50 (HeLa) is on record?
The AC50 was 113 µM (active).

Which CC50 [1] does the source give for `O=C(NC(Cc1c[nH]c2ccccc12)C(=O)Nc1ccc(F)c([N+](=O)[O-])c1)c1cccs1` (stereo not drawn) here?
The CC50 was 13.1 µM (active).

And the AC50 (HEK293 [13])?
Its AC50 is 1.37 µM (active).

What about the IC50 (Vero [14]) of the same compound?
Its IC50 is 22.4 µM (active).

And the CC50 (Vero [15])?
The CC50 was 18.5 µM (active).

And the IC50 (Fatty acid synthase [16])?
Its IC50 is 7.53 µM (active).

And the IC50 (Fatty acid synthase [17])?
Its IC50 is 3.78 µM (active).

And the IC50 (cells)?
The IC50 was 10.2 µM (active).

With `CCc1ccc(NC(=O)C(S)=NC2CCCCC2)cc1` as the compound, how does the AC50 (HeLa) read?
The AC50 was 182 µM (active).

Which results are given for `O=C(c1cccc(COc2cccc3ccccc23)c1)N1CCCC1`?
CC50 [1]: 21.3 µM (active); IC50 (Vero [14]): > 25 µM (active); CC50 (Vero [15]): > 25 µM (active); IC50 (cells): > 50 µM (active)

With `Cc1ccccc1OCC(=O)Nc1ccc(S(=O)(=O)Nc2onc(C)c2C)cc1` as the compound, how does the AC50 (Escherichia coli) read?
The AC50 was 39.2 µM (active).

Which EC50 [18] does the source give for `COc1cccc(CN(C(=O)Cc2c[nH]c3ccccc23)C(C(=O)NC2CCCCC2)c2ccc(C)o2)c1` (stereo not drawn) here?
The EC50 was 19.9 µM (active).

What about the EC50 [19] of the same compound?
Its EC50 is 22.3 µM (active).

And the AC50 (Escherichia coli)?
Its AC50 is 44.4 µM (active).

Which IC50 (Vero [14]) does the source give for `Fc1ccccc1CSc1ncnc2c1ncn2C1CCCO1` (stereo not drawn) here?
The IC50 was 8.43 µM (active).

Which AC50 (Escherichia coli) does the source give for `CC(C)(C)c1nn2cnnc2n(/N=C/c2cccc3ccccc23)c1=O` here?
The AC50 was 38.5 µM (active).
